Measurements reported in patent publication US12239643B2, “Therapeutic agent for inflammatory diseases, autoimmune diseases, fibrotic diseases, and cancer diseases” (MEIJI SEIKA PHARMA CO., LTD., priority 2018, dated 2025).
Where two headings read alike, the source gives them in different places.

System: PDE4
Test: Evaluation of PDE4 inhibitory activity, scintillation proximity assay
Format: biochemical
Settings: scintillation proximity assay
Method in brief: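 IC50 was derived from inhibition curves, referenced to an enzyme-free blank and a DMSO-only control. Compound, PDE4 preparation and tritiated cAMP reacted 120 min at RT in Tris-HCl buffer (pH 7.4) with MgCl2, EGTA and BSA; YSi-SPA beads with ZnSO4 bound product before scintillation counting.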

[1] = class symbols of Evaluation 1, read-out: PDE4 Inhibitory Activity (concentration for the inhibition rate of 50%, IC50), Evaluation 1
[2] = read-out: PDE4 Inhibitory Activity (Evaluation 1; concentration for the inhibition rate of 50%)

CCOC(=O)c1cc(-c2nccs2)c2oc(N3CC4CCCC(C3)N4)nc2c1C(F)(F)F [Example 164, Ethyl 2-(3,9-diazabicyclo[3.3.1]nonan-3-yl)-7-(thiazol-2-yl)-4-(trifluoromethyl)benzo[d]oxazole-5-carboxylate]
IC50 [1]: < 100 nM

COC(c1ccc(-c2nccs2)c2oc(N3CC4CC(C3)N4)nc12)C(F)(F)F (centres unmarked) [Example 122, 2-(3,6-Diazabicyclo[3.1.1]heptan-3-yl)-7-(thiazol-2-yl)-4-(2,2,2-trifluoro-1-methoxyethyl)benzo[d]oxazole]
IC50 [1]: < 100 nM

FC(F)(F)c1c(Cl)cc(-c2nccs2)c2oc(N3CC4COCC(C3)N4)nc12 [Example 19, 7-(5-Chloro-7-(thiazol-2-yl)-4-(trifluoromethyl)benzo[d]oxazol-2-yl)-3-oxa-7,9-diazabicyclo[3.3.1]nonane]
IC50 [1]: < 100 nM

Oc1ccc(-c2nccs2)c2oc(N3CC4CC(C3)N4)nc12 [Example 79, 2-(3,6-Diazabicyclo[3.1.1]heptan-3-yl)-7-(thiazol-2-yl)benzo[d]oxazol-4-ol]
IC50 [1]: < 100 nM

COC(C)(c1cc(-c2nccs2)c2oc(N3CC4CC(C3)N4)nc2c1OC(F)(F)F)C(F)(F)F (centres unmarked) [Example 214, 2-(3,6-Diazabicyclo[3.1.1]heptan-3-yl)-7-(thiazol-2-yl)-5-(1,1,1-trifluoro-2-methoxypropan-2-yl)-4-(trifluoromethoxy)benzo[d]oxazole]
IC50 [2]: < 100 nM

CC(O)c1ccc(-c2nccs2)c2oc(N3CC4CCCC(C3)N4)nc12 (centres unmarked) [Example 239, 1-(2-(3,9-Diazabicyclo[3.3.1]nonan-3-yl)-7-(thiazol-2-yl)benzo[d]oxazol-4-yl)ethan-1-ol]
IC50 [2]: < 100 nM

COCc1cc(-c2nccs2)c2oc(N3CC4CCC(C3)N4)nc2c1C(F)(F)F [Example 167, 2-(3,8-Diazabicyclo[3.2.1]octan-3-yl)-5-(methoxymethyl)-7-(thiazol-2-yl)-4-(trifluoromethyl)benzo[d]oxazole]
IC50 [1]: < 100 nM

COC(C)(C)C(F)(F)Oc1ccc(-c2nccs2)c2oc(N3CC4CC(C3)N4)nc12 [Example 393, 2-(3,6-Diazabicyclo[3.1.1]heptan-3-yl)-4-(1,1-difluoro-2-methoxy-2-methylpropoxy)-7-(thiazol-2-yl)benzo[d]oxazole]
IC50 [2]: < 100 nM

CC(=O)c1ccc(-c2nccs2)c2oc(N3CC4CCC(C3)N4)nc12 [Example 245, 1-(2-(3,8-Diazabicyclo[3.2.1]octan-3-yl)-7-(thiazol-2-yl)benzo[d]oxazol-4-yl)ethan-1-one]
IC50 [2]: < 100 nM

OC(c1ccc(-c2nccs2)c2oc(N3CC4CC(C3)N4)nc12)C(F)(F)F (centres unmarked) [Example 121, 1-(2-(3,6-Diazabicyclo[3.1.1]heptan-3-yl)-7-(thiazol-2-yl)benzo[d]oxazol-4-yl)-2,2,2-trifluoroethan-1-ol]
IC50 [1]: < 100 nM

CC(C)c1cc(-c2nccs2)c2oc(N3CC4COCC(C3)N4)nc2c1 [Example 23, 7-(5-Isopropyl-7-(thiazol-2-yl)benzo[d]oxazol-2-yl)-3-oxa-7,9-diazabicyclo[3.3.1]nonane]
IC50 [1]: 100 to 1000 nM

FC(F)(F)COC(c1ccc(-c2nccs2)c2oc(N3CC4CC(C3)N4)nc12)C(F)(F)F (centres unmarked) [Example 223, 2-(3,6-Diazabicyclo[3.1.1]heptan-3-yl)-7-(thiazol-2-yl)-4-(2,2,2-trifluoro-1-(2,2,2-trifluoroethoxy)ethyl)benzo[d]oxazole]
IC50 [2]: < 100 nM

CC(C)C(O)c1cc(-c2nccs2)c2oc(N3CC4CCC(C3)N4)nc2c1OC(F)(F)F (centres unmarked) [Example 205, 1-(2-(3,8-Diazabicyclo[3.2.1]octan-3-yl)-7-(thiazol-2-yl)-4-(trifluoromethoxy)benzo[d]oxazol-5-yl)-2-methylpropan-1-ol]
IC50 [2]: < 100 nM

CC(C)(O)C(F)(F)Oc1ccc(-c2ccccn2)c2oc(N3CC4CC(C3)N4)nc12 [Example 289, 1-((2-(3,6-Diazabicyclo[3.1.1]heptan-3-yl)-7-(pyridin-2-yl)benzo[d]oxazol-4-yl)oxy)-1,1-difluoro-2-methylpropan-2-ol]
IC50 [2]: < 100 nM

CN(C)C(=O)c1cc(-c2nccs2)c2oc(N3CC4CCC(C3)N4)nc2c1 [Example 94, 2-(3,8-Diazabicyclo[3.2.1]octan-3-yl)-N,N-dimethyl-7-(thiazol-2-yl)benzo[d]oxazole-5-carboxamide]
IC50 [1]: < 100 nM

CCOC(=O)c1cc(-c2nccs2)c2oc(N3CC4CCC(C3)N4)nc2c1 [Example 86, Ethyl 2-(3,8-diazabicyclo[3.2.1]octan-3-yl)-7-(thiazol-2-yl)benzo[d]oxazole-5-carboxylate]
IC50 [1]: < 100 nM

CC(O)c1cc(-c2nccs2)c2oc(N3CC4CC(C3)N4)nc2c1 (centres unmarked) [Example 107, 1-(2-(3,6-Diazabicyclo[3.1.1]heptan-3-yl)-7-(thiazol-2-yl)benzo[d]oxazol-5-yl)ethan-1-ol]
IC50 [1]: 100 to 1000 nM

CCOC(=O)c1cc(-c2nccs2)c2oc(N3CC4CCC(C3)N4)nc2c1C(F)(F)F [Example 163, Ethyl 2-(3,8-diazabicyclo[3.2.1]octan-3-yl)-7-(thiazol-2-yl)-4-(trifluoromethyl)benzo[d]oxazole-5-carboxylate]
IC50 [1]: < 100 nM

OCCOC(c1cc(-c2nccs2)c2oc(N3CC4CCC(C3)N4)nc2c1)C(F)(F)F (centres unmarked) [Example 149, 2-(1-(2-(3,8-Diazabicyclo[3.2.1]octan-3-yl)-7-(thiazol-2-yl)benzo[d]oxazol-5-yl)-2,2,2-trifluoroethoxy)ethan-1-ol]
IC50 [1]: < 100 nM

FC(F)(F)Oc1c(Cl)cc(-c2ccco2)c2oc(N3CC4CCC(C3)N4)nc12 [Example 6, 2-(3,8-Diazabicyclo[3.2.1]octan-3-yl)-5-chloro-7-(furan-2-yl)-4-(trifluoromethoxy)benzo[d]oxazole]
IC50 [1]: < 100 nM

O=C(O)c1cc(-c2nccs2)c2oc(N3CC4CCCC(C3)N4)nc2c1OC(F)(F)F [Example 191, 2-(3,9-Diazabicyclo[3.3.1]nonan-3-yl)-7-(thiazol-2-yl)-4-(trifluoromethoxy)benzo[d]oxazole-5-carboxylic acid]
IC50 [2]: 100 to 1000 nM

COC(C)(C)c1cc(-c2nccs2)c2oc(N3CC4CC(C3)N4)nc2c1 [Example 174, 2-(3,6-Diazabicyclo[3.1.1]heptan-3-yl)-5-(2-methoxypropan-2-yl)-7-(thiazol-2-yl)benzo[d]oxazole]
IC50 [1]: < 100 nM

O=S1(=O)CCC(Oc2ccc(-c3nccs3)c3oc(N4CC5CC(C4)N5)nc23)CC1 [Example 314, 4-((2-(3,6-Diazabicyclo[3.1.1]heptan-3-yl)-7-(thiazol-2-yl)benzo[d]oxazol-4-yl)oxy)tetrahydro-2H-thiopyran 1,1-dioxide]
IC50 [2]: < 100 nM

CC(C)(O)c1cc(-c2nccs2)c2oc(N3CC4CCCC(C3)N4)nc2c1C(F)(F)F [Example 166, 2-(2-(3,9-Diazabicyclo[3.3.1]nonan-3-yl)-7-(thiazol-2-yl)-4-(trifluoromethyl)benzo[d]oxazol-5-yl)propan-2-ol]
IC50 [1]: < 100 nM

OC1(c2cc(-c3nccs3)c3oc(N4CC5CCC(C4)N5)nc3c2OC(F)(F)F)CC1 [Example 274, 1-(2-(3,8-Diazabicyclo[3.2.1]octan-3-yl)-7-(thiazol-2-yl)-4-(trifluoromethoxy)benzo[d]oxazol-5-yl)cyclopropan-1-ol]
IC50 [2]: < 100 nM

CNC(=O)c1cc(-c2nccs2)c2oc(N3CC4CCC(C3)N4)nc2c1 [Example 100, 2-(3,8-Diazabicyclo[3.2.1]octan-3-yl)-N-methyl-7-(thiazol-2-yl)benzo[d]oxazole-5-carboxamide]
IC50 [1]: < 100 nM

FC(F)(F)COC(c1cc(-c2nccs2)c2oc(N3CC4CCC(C3)N4)nc2c1)C(F)(F)F (centres unmarked) [Example 146, 2-(3,8-Diazabicyclo[3.2.1]octan-3-yl)-7-(thiazol-2-yl)-5-(2,2,2-trifluoro-1-(2,2,2-trifluoroethoxy)ethyl)benzo[d]oxazole]
IC50 [1]: < 100 nM

COC(C)(C)c1cc(-c2nccs2)c2oc(N3CC4CCCC(C3)N4)nc2c1OC(F)(F)F [Example 200, 2-(3,9-Diazabicyclo[3.3.1]nonan-3-yl)-5-(2-methoxypropan-2-yl)-7-(thiazol-2-yl)-4-(trifluoromethoxy)benzo[d]oxazole]
IC50 [2]: < 100 nM

CNS(=O)(=O)c1ccc(-c2nccs2)c2oc(N3CC4CC(C3)N4)nc12 [Example 386, 2-(3,6-Diazabicyclo[3.1.1]heptan-3-yl)-N-methyl-7-(thiazol-2-yl)benzo[d]oxazole-4-sulfonamide]
IC50 [2]: < 100 nM

CC(C)(O)c1cc(-c2nccs2)c2oc(N3CC4CC(C3)N4)nc2c1OC(F)(F)F [Example 196, 2-(2-(3,6-Diazabicyclo[3.1.1]heptan-3-yl)-7-(thiazol-2-yl)-4-(trifluoromethoxy)benzo[d]oxazol-5-yl)propan-2-ol]
IC50 [2]: < 100 nM

COC(C)c1cc(-c2nccs2)c2oc(N3CC4CC(C3)N4)nc2c1 (centres unmarked) [Example 111, 2-(3,6-Diazabicyclo[3.1.1]heptan-3-yl)-5-(1-methoxyethyl)-7-(thiazol-2-yl)benzo[d]oxazole]
IC50 [1]: < 100 nM

FC(F)(F)Oc1c(Cl)cc(-c2nccs2)c2oc(N3CC4CCCC(C3)N4)nc12 [Example 2, 2-(3,9-Diazabicyclo[3.3.1]nonan-3-yl)-5-chloro-7-(thiazol-2-yl)-4-(trifluoromethoxy)benzo[d]oxazole]
IC50 [1]: < 100 nM

OC(c1ccc(-c2nccs2)c2oc(N3CC4CCC(C3)N4)nc12)C(F)F (centres unmarked) [Example 128, 1-(2-(3,8-Diazabicyclo[3.2.1]octan-3-yl)-7-(thiazol-2-yl)benzo[d]oxazol-4-yl)-2,2-difluoroethan-1-ol]
IC50 [1]: < 100 nM

CC(=O)Nc1ccc(-c2nccs2)c2oc(N3CC4CC(C3)N4)nc12 [Example 35, N-(2-(3,6-diazabicyclo[3.1.1]heptan-3-yl)-7-(thiazol-2-yl)benzo[d]oxazol-4-yl)acetamide]
IC50 [1]: 100 to 1000 nM

O=C(NCc1ccccc1)c1cc(-c2nccs2)c2oc(N3CC4CCC(C3)N4)nc2c1 [Example 98, N-benzyl-2-(3,8-diazabicyclo[3.2.1]octan-3-yl)-7-(thiazol-2-yl)benzo[d]oxazole-5-carboxamide]
IC50 [1]: < 100 nM
